Literature values in US10632107B2, “Crystalline forms of benzoquinoline inhibitors of vesicular monoamine transporter 2” (Apotex Inc., priority 2018, dated 2020).
Like-named read-outs stand apart in the source and are kept apart here.

solubility (low pH of the stomach): slight solubility
solubility (pH values of greater than 4): practically insoluble
Compound: COc1cc2c(cc1OC)C1CC(=O)C(CC(C)C)CN1CC2 (racemic) [Tetrabenazine, rel-(3R,11bR)-1,3,4,6,7,11b-hexahydro-9,10-dimethoxy-3-(2-methylpropyl)-2H-benzo[a]quinolizin-2-one]
